Laboratory results from article PMC10539501 (Nature Communications, 2023).
Starred links: 1 amine or outer side, 2 acyl side, 3 side chain; linkers in the order of their positions; H or OH if unused. Non-standard residues stand in square brackets, D forms with d. Residues, ends and D or L forms follow the SMILES beside them. X6 = O=C([C@H](Cc1ccc(O)cc1)NC(=S)[C@H]1CCCN1[*:1])[*:2]; X5 = CC(C)C[C@H](NC(=S)[C@H](CC(C)C)N[*:1])C(=O)[*:2]; X4 = CC(C)C[C@H](N[*:1])C(=S)N1CCC[C@@H]1C(=O)[*:2]

Tests used:
pepsin = pepsin (Sus scrofa, UniProt P00791); experiment: in vitro; details: simulated gastric fluid, pH 1.2
physchem = details: pH 7.4
[1] = PAMPA passive permeability; type: in vitro ADME; details: for Papp: Pe Avg;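 for all read-outs here: passive permeability across an artificial membrane in 96-well pre-coated PAMPA plates, which lack transporters and efflux systems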
[2] = type: physicochemical
in vitro [3] = details: both, human, plasma
in vitro [4] = details: pig, simulated intestinal fluid
[5] = type: physicochemical; remark: listed apart in the source
in vitro [6] = details: human, microsomes
in vitro [7] = details: both, human, plasma; remark: listed apart in the source
in vitro [8] = type: in vitro ADME, human
Caco-2 cells = experiment: in vitro; type: in vitro ADME, human; details: Caco-2
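Throughout, for Papp A-B + Elacridar avg: Caco-2 monolayers used 21 days after seeding in HBSS-HEPES buffer with 1% DMSO, donor and acceptor levels quantified by LC-MS/MS, TEER checked before and after.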
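Throughout, for Papp A-B + Elacridar set 1: Caco-2 monolayers used 21 days after seeding in HBSS-HEPES buffer with 1% DMSO, donor and acceptor levels quantified by LC-MS/MS, TEER checked before and after.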
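Throughout, for Papp A-B + Elacridar set 2: Caco-2 monolayers used 21 days after seeding in HBSS-HEPES buffer with 1% DMSO, donor and acceptor levels quantified by LC-MS/MS, TEER checked before and after.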
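Throughout, for Papp A-B avg: Caco-2 monolayers used 21 days after seeding in HBSS-HEPES buffer with 1% DMSO, donor and acceptor levels quantified by LC-MS/MS, TEER checked before and after.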

Chain of pepsin (P00791 60-385): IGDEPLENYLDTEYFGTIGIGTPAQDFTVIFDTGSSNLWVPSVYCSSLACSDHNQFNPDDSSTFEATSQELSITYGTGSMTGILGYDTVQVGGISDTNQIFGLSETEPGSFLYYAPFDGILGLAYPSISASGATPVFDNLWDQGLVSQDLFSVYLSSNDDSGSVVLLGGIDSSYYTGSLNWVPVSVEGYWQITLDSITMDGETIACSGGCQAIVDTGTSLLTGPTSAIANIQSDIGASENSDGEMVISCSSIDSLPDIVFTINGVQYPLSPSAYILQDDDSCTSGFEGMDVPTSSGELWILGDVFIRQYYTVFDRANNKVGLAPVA

## CC(C)C[C@@H]1NC(=O)[C@H](Cc2ccc(O)cc2)NC(=O)[C@H]2CCCN2C(=O)[C@H](CC(C)C)NC(=S)[C@H](CC(C)C)NC(=O)[C@@H](CC(C)C)NC1=O [10b] (cyclo(L[dL][X5][dP]Y))
pepsin
  half-life: 0.283 h
  remaining at 5 min: 72%
  remaining at 10 min: 57%
  remaining at 20 min: 47%
  remaining at 0.5 h: 38%
  remaining at 1 h: 33%
  remaining at 2 h: 27%
  remaining at 4 h: 23%
  remaining at 8 h: 17%
  remaining at 12 h: 10%
  remaining at 24 h: 5%
Human liver microsomes
  Half lives: 19.0
physchem
  logD: 1.42
[1]
  Pe Avg: 4.3 ×10⁻⁶ cm/s
  Pe set1: 4.84 ×10⁻⁶ cm/s
  Pe set2: 3.05 ×10⁻⁶ cm/s
  Pe set3: 5.14 ×10⁻⁶ cm/s
  Papp: 4.3 ×10⁻⁶ cm/s
[2]
  % solubility: 26%
In vitro [3]
  fraction unbound: 0.31
In vitro [4]
  half-life: 1.6 h
  remaining at 10 min: 71.7%
  remaining at 0.5 h: 53.6%
  remaining at 1 h: 47.1%
  remaining at 2 h: 39%
  remaining at 4 h: 32.1%
  remaining at 8 h: 26.6%
  remaining at 12 h: 16.6%
  remaining at 24 h: 10.3%
[5]
  logD heptane ethylene glycol: 0.62
In vitro [6]
  microsomal CLint: 73 µL/min/mg
  remaining at 5 min: 85%
  remaining at 10 min: 65%
  remaining at 20 min: 49%
  remaining at 0.5 h: 34%
  remaining at 0.75 h: 28%
  remaining at 1 h: 15%
In vitro [7]
  half-life: 23 h
  remaining at 1 h: 91%
  remaining at 3 h: 85%
  remaining at 5 h: 80%
  remaining at 7 h: 76%
  remaining at 9 h: 74%
  remaining at 12 h: 59%
  remaining at 24 h: 47%
  remaining at 36 h: 33%
  remaining at 48 h: 25%
  remaining at 60 h: 15%
  remaining at 72 h: 7%

## CC(C)C[C@@H]1NC(=O)[C@H](Cc2ccc(O)cc2)NC(=O)[C@H]2CCCN2C(=S)[C@H](CC(C)C)NC(=O)[C@H](CC(C)C)NC(=O)[C@@H](CC(C)C)NC1=O [10c] (cyclo(L[dL]L[X4]Y))
pepsin
  half-life: 0.333 h
  remaining at 5 min: 76%
  remaining at 10 min: 68%
  remaining at 20 min: 50%
  remaining at 0.5 h: 41%
  remaining at 1 h: 31%
  remaining at 2 h: 26%
  remaining at 4 h: 19%
  remaining at 8 h: 12%
  remaining at 12 h: 5%
  remaining at 24 h: 0%
Human liver microsomes
  Half lives: 13.8
physchem
  logD: 1.27
[1]
  Pe Avg: 3.1 ×10⁻⁶ cm/s
  Pe set1: 2.92 ×10⁻⁶ cm/s
  Pe set2: 3.69 ×10⁻⁶ cm/s
  Pe set3: 2.79 ×10⁻⁶ cm/s
  Papp: 3.1 ×10⁻⁶ cm/s
[2]
  % solubility: 69%
In vitro [3]
  fraction unbound: 0.24
In vitro [8]; Caco-2, Papp B-A + Elacridar avg
  Papp B→A: 0.6 ×10⁻⁶ cm/s
In vitro [8]; Caco-2, Papp B-A avg
  Papp B→A: 5.26 ×10⁻⁶ cm/s
Caco-2 cells
  Papp A-B + Elacridar avg: 0 ×10⁻⁶ cm/s
  Papp A-B + Elacridar set 1: 0 ×10⁻⁶ cm/s
  Papp A-B + Elacridar set 2: 0 ×10⁻⁶ cm/s
  Papp A-B avg: 0 cm/s
  Papp A-B avg (second block): 0.00 cm/s
  Papp A-B set 1: 0 cm/s
  Papp A-B set 1 (second block): 0.00 cm/s
  Papp A-B set 2: 0 cm/s
  Papp A-B set 2 (second block): 0.00 cm/s
  Papp AB+Elacridar (PAMPA Caco2 correlation): 0 ×10⁻⁶ cm/s
  Papp B-A avg (second block): 5.3 ×10⁻⁶ cm/s
  Papp B-A set 1 (second block): 4.5 ×10⁻⁶ cm/s
  Papp B-A set 2 (second block): 6.1 ×10⁻⁶ cm/s
In vitro [4]
  half-life: 0.567 h
  remaining at 10 min: 70%
  remaining at 0.5 h: 50.7%
  remaining at 1 h: 46.6%
  remaining at 2 h: 38.4%
  remaining at 4 h: 29.3%
  remaining at 8 h: 26.2%
  remaining at 12 h: 20.6%
  remaining at 24 h: 12.8%
[5]
  logD heptane ethylene glycol: 0.72
In vitro [6]
  microsomal CLint: 106 µL/min/mg
  remaining at 5 min: 76%
  remaining at 10 min: 56%
  remaining at 20 min: 45%
  remaining at 0.5 h: 35%
  remaining at 0.75 h: 16%
  remaining at 1 h: 17%
In vitro [7]
  half-life: 21 h
  remaining at 1 h: 87%
  remaining at 3 h: 83%
  remaining at 5 h: 78%
  remaining at 7 h: 75%
  remaining at 9 h: 64%
  remaining at 12 h: 60%
  remaining at 24 h: 44%
  remaining at 36 h: 34%
  remaining at 48 h: 26%
  remaining at 60 h: 10%
  remaining at 72 h: 12%

## CC(C)C[C@@H]1NC(=O)[C@H](Cc2ccc(O)cc2)NC(=S)[C@H]2CCCN2C(=O)[C@H](CC(C)C)NC(=O)[C@H](CC(C)C)NC(=O)[C@@H](CC(C)C)NC1=O [10d] (cyclo(LL[X6]L[dL]))
pepsin
  half-life: 0.4 h
  remaining at 5 min: 75%
  remaining at 10 min: 66%
  remaining at 20 min: 56%
  remaining at 0.5 h: 44%
  remaining at 1 h: 37%
  remaining at 2 h: 29%
  remaining at 4 h: 21%
  remaining at 8 h: 16%
  remaining at 12 h: 6%
  remaining at 24 h: 2%
Human liver microsomes
  Half lives: 29.5
physchem
  logD: 1.24
[1]
  Pe Avg: 4.2 ×10⁻⁶ cm/s
  Pe set1: 2.03 ×10⁻⁶ cm/s
  Pe set2: 5.97 ×10⁻⁶ cm/s
  Pe set3: 4.7 ×10⁻⁶ cm/s
  Papp: 4.2 ×10⁻⁶ cm/s
[2]
  % solubility: 22%
In vitro [3]
  fraction unbound: 0.03
In vitro [4]
  half-life: 1.35 h
  remaining at 10 min: 79.4%
  remaining at 0.5 h: 62.8%
  remaining at 1 h: 56.2%
  remaining at 2 h: 38.5%
  remaining at 4 h: 31.9%
  remaining at 8 h: 19.6%
  remaining at 12 h: 11.2%
  remaining at 24 h: 5.8%
[5]
  logD heptane ethylene glycol: 0.72
In vitro [6]
  microsomal CLint: 47 µL/min/mg
  remaining at 5 min: 96%
  remaining at 10 min: 71%
  remaining at 20 min: 61%
  remaining at 0.5 h: 50%
  remaining at 0.75 h: 40%
  remaining at 1 h: 20%
In vitro [7]
  half-life: 20 h
  remaining at 1 h: 86%
  remaining at 3 h: 81%
  remaining at 5 h: 78%
  remaining at 7 h: 63%
  remaining at 9 h: 59%
  remaining at 12 h: 64%
  remaining at 24 h: 46%
  remaining at 36 h: 35%
  remaining at 48 h: 31%
  remaining at 60 h: 21%
  remaining at 72 h: 19%
